Here are results for twelve compounds from patent US12521440B2, “Degradation of bruton's tyrosine kinase (BTK) by conjugation of BTK inhibitors with E3 ligase ligand and methods of use” (BeOne Medicines I GmbH, priority 2021, dated 2026).

Experiment [1] concerns the target T1, BTK (Homo sapiens, UniProt Q06187).
T1 construct: endogenous in cells; host or cells: TMD-8 cells
Briefly: BTK degradation in TMD-8 cells (HTRF assay). The settings on record: 6 h treatment, HTRF BTK degradation IC50 (DC50). The experiment is classed as cell-based. The procedure:
TMD-8 cells were treated with compounds diluted in 0.2% DMSO, dilution was done according to the following protocol: (1) making 500×stock solution in DMSO from 1 mM by 6-fold dilution, total 8 doses were included; (2) making 2×solution in cell culture medium by transferring 0.5 μl 500×stock solution into 125 μl medium; (3) adding 15 μl of 2×solution to cells for incubation of 6 h.
After 6 h treatment, 10 μl 4×lysis buffer was added to each well; the plate was sealed and incubated for 30 min at room temperature on a plate shaker; Once the cells was lysed, 16 μL of cell lysate were transferred to a PE 384-well HTRF detection plate; 4 μL of pre-mixed HTRF antibodies were added to each well; the plate was covered with a plate sealer, and then spinned at 1000 rpm for 1 min, then incubated overnight at room temperature; the results were read on BMG PheraStar with HTRF protocol (337 nm-665 nm-620 nm).
(§1) The IC50 (DC50) value of a compound can be obtained by fitting the following equation Y=Bottom+(TOP−Bottom)/(1+((IC50/X)^hillslope)) wherein, X and Y are known values, and IC50, Hillslope, Top and Bottom are the parameters obtained by fitting with software. Y is the inhibition percentage (calculated from the equation), X is the concentration of the compound; IC50 is the concentration of the compound when the 50% inhibition is reached. The smaller the IC50 value is, the stronger the inhibitory ability of the compound is. Vice versa, the higher the IC50 value is, the weaker the ability the inhibitory ability of the compound is; Hillslope represents the slope of the fitted curve, generally around 1*; Bottom represents the minimum value of the curve obtained by data fitting, which is generally 0%±20%; Top represents the maximum value of the curve obtained by data fitting, which is generally 100%±20%. The experimental data were fitted by calculating and analyzing with Dotmatics data analysis software. HEK-293 Cell Treatment

Experiment [2] deals with HEK-293 cells. Briefly: HEK-293 cytotoxicity detection (CellTiter-Glo). The settings on record: Homo sapiens, 72 h incubation, read-out: HEK293. It is filed as cell-based.
Text: as §1
HEK-293 cells were treated with compounds diluted in 0.2% DMSO, dilution was done according to the following protocol: (1) making 500×stock solution in DMSO from 5 mM by 4-fold dilution, total 8 doses were included; (2) making 2×solution in cell culture medium by transferring 0.5 ul 500×stock solution into 125 ul medium; (3) adding 50 ul of 2×solution to cells for incubation of 72 h.
25 μl of the CellTiter-Glo® Reagent [(Promega)—Cat No. G7572] was added to each well in the 96-well plate. The contents were mixed for 2 minutes on an orbital shaker to induce cell lysis. The plate was then allowed to incubate at room temperature for 10 minutes to stabilize luminescent signal. Luminescence was recorded on BMG PheraStar with luminescence protocol.
as §1, with “IC50” for “IC50 (DC50)”, “Wherein,” for “wherein,”, “software.” for “software. HEK-293 Cell Treatment”
In general terms: ATP-based viability assays read luminescence as a measure of living cells.

A value given as a limit tells only on which side of the number the result lay.

T1 sequence (Q06187 whole entry): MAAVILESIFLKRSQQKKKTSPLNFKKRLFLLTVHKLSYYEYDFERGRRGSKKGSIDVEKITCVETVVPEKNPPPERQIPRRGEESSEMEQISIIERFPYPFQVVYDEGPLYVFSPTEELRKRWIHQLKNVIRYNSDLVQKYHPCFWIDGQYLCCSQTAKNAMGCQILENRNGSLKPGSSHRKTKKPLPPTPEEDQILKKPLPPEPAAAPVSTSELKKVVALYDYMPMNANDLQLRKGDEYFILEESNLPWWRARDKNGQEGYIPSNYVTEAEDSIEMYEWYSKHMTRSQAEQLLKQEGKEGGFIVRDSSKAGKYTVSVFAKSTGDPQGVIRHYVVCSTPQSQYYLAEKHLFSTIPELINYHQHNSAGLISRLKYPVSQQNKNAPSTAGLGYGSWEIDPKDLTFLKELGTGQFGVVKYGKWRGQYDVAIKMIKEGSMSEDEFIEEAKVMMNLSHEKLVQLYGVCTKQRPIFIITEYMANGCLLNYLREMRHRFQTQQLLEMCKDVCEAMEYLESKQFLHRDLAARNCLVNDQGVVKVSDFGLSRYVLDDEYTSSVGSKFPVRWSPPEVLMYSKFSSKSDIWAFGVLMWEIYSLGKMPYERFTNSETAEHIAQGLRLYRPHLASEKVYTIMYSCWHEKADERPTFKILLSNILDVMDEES

One may read the DC50 as the concentration giving 50% degradation. High values mean degradation only at high concentration, low ones degradation at low concentration. `Cc1cc(-c2cc(Nc3ccc(N4CCN(C(=O)C5CN(c6ccc(C7CCC(=O)NC7=O)cc6)C5)CC4)cn3)ncn2)ccc1[C@@H](C)NC(=O)c1nc(C(C)(C)C)no1` (stereo partly drawn) [Example 26, 3-(tert-butyl)-N-((1R)-1-(4-(6-((5-(4-(1-(4-(2,6-dioxopiperidin-3-yl)phenyl)azetidine-3-carbonyl)piperazin-1-yl)pyridin-2-yl)amino)pyrimidin-4-yl)-2-methylphenyl)ethyl)-1,2,4-oxadiazole-5-carboxamide] displayed a DC50 in experiment [1] of 0.899 nM. The IC50 in experiment [2] was more than 10000 nM.
As to `Cc1cc(-c2cc(Nc3ccc(N4CCN(C(=O)C5CN(c6cc(F)c(C7CCC(=O)NC7=O)c(F)c6)C5)CC4)cn3)ncn2)ccc1[C@@H](C)NC(=O)c1nc(C(C)(C)C)no1` (stereo partly drawn) [Example 27, 3-(tert-butyl)-N-((1R)-1-(4-(6-((5-(4-(1-(4-(2,6-dioxopiperidin-3-yl)-3,5-difluorophenyl)azetidine-3-carbonyl)piperazin-1-yl)pyridin-2-yl)amino)pyrimidin-4-yl)-2-methylphenyl)ethyl)-1,2,4-oxadiazole-5-carboxamide], in experiment [1], it took 3.57 nM to reach half-maximal degradation (DC50). In addition, the IC50 in experiment [2] is more than 10000 nM.
Take `Cc1cc(-c2cc(Nc3ccc(N4CCN(C(=O)C5CCN(c6ccc(N7CCC(=O)NC7=O)cc6)CC5)CC4)cn3)ncn2)ccc1[C@@H](C)NC(=O)c1nc(C(C)(C)C)no1` [Example 28, (R)-3-(tert-butyl)-N-(1-(4-(6-((5-(4-(1-(4-(2,4-dioxotetrahydropyrimidin-1(2H)-yl)phenyl)piperidine-4-carbonyl)piperazin-1-yl)pyridin-2-yl)amino)pyrimidin-4-yl)-2-methylphenyl)ethyl)-1,2,4-oxadiazole-5-carboxamide]: it took 1.66 nM to reach half-maximal degradation in experiment [1] (DC50). Moreover, the IC50 in experiment [2] is more than 10000 nM.
For the compound `Cc1cc(-c2cc(Nc3ccc(N4CCN(C(=O)C5CCN(c6ccc(N7CCC(=O)NC7=O)cc6)C5)CC4)cn3)ncn2)ccc1[C@@H](C)NC(=O)c1nc(C(C)(C)C)no1` (stereo partly drawn) [Example 29, 3-(tert-butyl)-N-((1R)-1-(4-(6-((5-(4-(1-(4-(2,4-dioxotetrahydropyrimidin-1(2H)-yl)phenyl)pyrrolidine-3-carbonyl)piperazin-1-yl)pyridin-2-yl)amino)pyrimidin-4-yl)-2-methylphenyl)ethyl)-1,2,4-oxadiazole-5-carboxamide], in experiment [1], the 50% degradation concentration (DC50) is 0.836 nM. Moreover, the IC50 in experiment [2] is more than 10000 nM.
Consider `Cc1cc(-c2cc(Nc3ccc(N4CC5(CN(CC6CCN(c7ccc(N8CCC(=O)NC8=O)cc7)CC6)C5)C4)cn3)ncn2)ccc1[C@@H](C)NC(=O)c1nc(C(C)(C)C)no1` [Example 30, (R)-3-(tert-butyl)-N-(1-(4-(6-((5-(6-((1-(4-(2,4-dioxotetrahydropyrimidin-1(2H)-yl)phenyl)piperidin-4-yl)methyl)-2,6-diazaspiro [3.3]heptan-2-yl)pyridin-2-yl)amino)pyrimidin-4-yl)-2-methylphenyl)ethyl)-1,2,4-oxadiazole-5-carboxamide], for which the DC50 in experiment [1] was determined as 0.539 nM. Further, the IC50 in experiment [2] turned out to be 1000 nM.
On the same counts, the results for `Cc1cc(-c2cc(Nc3ccc(N4CCC5(CCN(CC6CCN(c7ccc(N8CCC(=O)NC8=O)cc7)CC6)C5)CC4)cn3)ncn2)ccc1[C@@H](C)NC(=O)c1nc(C(C)(C)C)no1` [Example 31, (R)-3-(tert-butyl)-N-(1-(4-(6-((5-(2-((1-(4-(2,4-dioxotetrahydropyrimidin-1(2H)-yl)phenyl)piperidin-4-yl)methyl)-2,8-diazaspiro[4.5]decan-8-yl)pyridin-2-yl)amino)pyrimidin-4-yl)-2-methylphenyl)ethyl)-1,2,4-oxadiazole-5-carboxamide] are 1.99 nM and 1870 nM.
In experiment [1], `Cc1cc(-c2cc(Nc3ccc(N4CCC5(CC4)CN(CC4CCN(c6ccc(N7CCC(=O)NC7=O)cc6)CC4)C5)cn3)ncn2)ccc1[C@@H](C)NC(=O)c1nc(C(C)(C)C)no1` [Example 32, (R)-3-(tert-butyl)-N-(1-(4-(6-((5-(2-((1-(4-(2,4-dioxotetrahydropyrimidin-1(2H)-yl)phenyl)piperidin-4-yl)methyl)-2,7-diazaspiro [3.5]nonan-7-yl)pyridin-2-yl)amino)pyrimidin-4-yl)-2-methylphenyl)ethyl)-1,2,4-oxadiazole-5-carboxamide] displayed a DC50 of 1.73 nM. In addition, the IC50 in experiment [2] was 1910 nM.
On the same counts, the results for `Cc1cc(-c2cc(Nc3ccc(N4CC5(CCN(CC6CCN(c7ccc(N8CCC(=O)NC8=O)cc7)CC6)CC5)C4)cn3)ncn2)ccc1[C@@H](C)NC(=O)c1nc(C(C)(C)C)no1` [Example 33, (R)-3-(tert-butyl)-N-(1-(4-(6-((5-(7-((1-(4-(2,4-dioxotetrahydropyrimidin-1(2H)-yl)phenyl)piperidin-4-yl)methyl)-2,7-diazaspiro [3.5]nonan-2-yl)pyridin-2-yl)amino)pyrimidin-4-yl)-2-methylphenyl)ethyl)-1,2,4-oxadiazole-5-carboxamide] are 1.3 nM and more than 10000 nM.
In experiment [1], `Cc1cc(-c2cc(Nc3ccc(N4CCC5(CCN(CC6CCN(c7ccc(N8CCC(=O)NC8=O)cc7)CC6)CC5)CC4)cn3)ncn2)ccc1[C@@H](C)NC(=O)c1nc(C(C)(C)C)no1` [Example 34, (R)-3-(tert-butyl)-N-(1-(4-(6-((5-(9-((1-(4-(2,4-dioxotetrahydropyrimidin-1(2H)-yl)phenyl)piperidin-4-yl)methyl)-3,9-diazaspiro [5.5]undecan-3-yl)pyridin-2-yl)amino)pyrimidin-4-yl)-2-methylphenyl)ethyl)-1,2,4-oxadiazole-5-carboxamide] displayed a half-maximal degradation concentration (DC50) of 1.88 nM. Besides, the IC50 in experiment [2] worked out at 891 nM.
On the same counts, the results for `Cc1cc(-c2cc(Nc3ccc(N4CC5(CN(C(=O)C6CN(c7ccc(N8CCC(=O)NC8=O)cc7)C6)C5)C4)cn3)ncn2)ccc1[C@@H](C)NC(=O)c1nc(C(C)(C)C)no1` [Example 35, (R)-3-(tert-butyl)-N-(1-(4-(6-((5-(6-(1-(4-(2,4-dioxotetrahydropyrimidin-1(2H)-yl)phenyl)azetidine-3-carbonyl)-2,6-diazaspiro [3.3]heptan-2-yl)pyridin-2-yl)amino)pyrimidin-4-yl)-2-methylphenyl)ethyl)-1,2,4-oxadiazole-5-carboxamide] are 0.981 nM and more than 10000 nM.
For `Cc1cc(-c2cc(Nc3ccc(N4CCC5(CC4)CN(C(=O)C4CN(c6ccc(N7CCC(=O)NC7=O)cc6)C4)C5)cn3)ncn2)ccc1[C@@H](C)NC(=O)c1nc(C(C)(C)C)no1` [Example 36, (R)-3-(tert-butyl)-N-(1-(4-(6-((5-(2-(1-(4-(2,4-dioxotetrahydropyrimidin-1(2H)-yl)phenyl)azetidine-3-carbonyl)-2,7-diazaspiro [3.5]nonan-7-yl)pyridin-2-yl)amino)pyrimidin-4-yl)-2-methylphenyl)ethyl)-1,2,4-oxadiazole-5-carboxamide], in experiment [1], the 50% degradation concentration (DC50) came out at 0.566 nM. The IC50 in experiment [2] was more than 10000 nM.
`Cc1cc(-c2cc(Nc3ccc(N4CC5(CN(C(=O)C6CCN(c7ccc(N8CCC(=O)NC8=O)cc7)C6)C5)C4)cn3)ncn2)ccc1[C@@H](C)NC(=O)c1nc(C(C)(C)C)no1` (stereo partly drawn) [Example 37, 3-(tert-butyl)-N-((1R)-1-(4-(6-((5-(6-(1-(4-(2,4-dioxotetrahydropyrimidin-1(2H)-yl)phenyl)pyrrolidine-3-carbonyl)-2,6-diazaspiro [3.3]heptan-2-yl)pyridin-2-yl)amino)pyrimidin-4-yl)-2-methylphenyl)ethyl)-1,2,4-oxadiazole-5-carboxamide] registered a DC50 in experiment [1] of 0.835 nM. In addition, in experiment [2], the IC50 is more than 10000 nM.
